# Experimental data as given in patent US8008506B2, “Indazole compounds” (priority 2008, dated 2011).
# pEC50: −log10 of the molar value. Like-named read-outs stand apart in the source and are kept apart here.
# Legend:
# Type in all cases: cell-based
# [1] = target: T1, human β1 adrenergic receptor (Homo sapiens, UniProt P08588); assay: Test Example 2-B: human β1 adrenergic receptor agonist activity (method of Test Example 1-B); details: for β1 receptor EC50: Table 2, Test Example 2-B; for Emax: read-out: β1 receptor I.A.
# T1 construct: expressed in transfected cells; host or cells: CHO (Chinese Hamster Ovary) cells, pcDNA3
# Description: (§1) The measurement of human β3 adrenergic receptor agonist activity is carried out using CHO (Chinese Hamster Ovary) cells transfected with pcDNA3 (manufactured by Invitrogen, Inc.) to which human β3 gene has been inserted. […] This human β3 cDNA fragment is used as a probe, and the full length human β3 gene is obtained from a human genomic library (manufactured by Clontech Laboratories, Inc.). The above cells are cultured in Ham's F-12 medium containing 10% fetal bovine serum and 400 μg/ml geneticin (manufactured by Invitrogen, Inc.). These cells are seeded on a 96-well plate to a concentration of 2×10^4 cells/well, and after being cultured for about 20 hours, the cells are left to stand in 80 μL of serum-free Ham's F-12 medium for 15 minutes. A test compound is initially dissolved in DMSO, and then is diluted stepwise with Ham's F-12 containing 100 mmol/L HEPES and 1 mmol/L isobutylmethylxanthine. 20 μL of the dilution is added to the cells. After the cells are cultured for 30 minutes, the medium is removed. 0.3. ml of the Assay/lysis Buffer included in cAMP-Screen kit (manufactured by Applied Biosystems, Inc.) is added to the cells, and the cells are incubated at 37° C. for 30 minutes. The resulting cell lysate is subjected to quantification of cAMP with the cAMP-Screen kit. […] Measurement of Human β1 Adrenergic Receptor Agonist Activity
# [2] = target: T2, human α1A adrenergic receptor (Homo sapiens, UniProt P35348); assay: Test Example 4: human α1A adrenergic receptor agonist activity (Ca flux, Fura-2, transfected HEK293 cells); details: for Emax: HEK293, read-out: α1A receptor I.A.
# T2 construct: expressed in transfected cells; host or cells: HEK293 cells, pcDNA3.1(−), hygromycin B selection
# T2 sequence (P35348 1-466): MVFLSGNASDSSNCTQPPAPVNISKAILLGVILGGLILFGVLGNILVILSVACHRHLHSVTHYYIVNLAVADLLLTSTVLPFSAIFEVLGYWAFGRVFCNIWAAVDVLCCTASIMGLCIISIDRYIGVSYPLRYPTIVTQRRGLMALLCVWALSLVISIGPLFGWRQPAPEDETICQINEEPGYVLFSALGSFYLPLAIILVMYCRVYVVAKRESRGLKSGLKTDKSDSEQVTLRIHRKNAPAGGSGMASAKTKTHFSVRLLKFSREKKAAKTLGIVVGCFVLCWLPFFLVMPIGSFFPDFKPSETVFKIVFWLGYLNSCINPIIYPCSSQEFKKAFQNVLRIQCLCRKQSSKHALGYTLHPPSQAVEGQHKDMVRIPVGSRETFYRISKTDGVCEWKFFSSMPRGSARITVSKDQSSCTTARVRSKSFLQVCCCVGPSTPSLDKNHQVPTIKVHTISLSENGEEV
# Description: Measurement of Human α1A Adrenergic Receptor Agonist Activity
# The measurement of human α1A adrenergic receptor agonist activity is carried out using HEK293 cells transfected with pcDNA3.1(−) (manufactured by Invitrogen, Inc.) to which human α1A gene has been inserted. These cells are cultured in DMEM medium containing 10% fetal bovine serum, 400 μg/ml hygromycin B (manufactured by Gibco BRL), 100 U/ml penicillin and 100 μg/ml streptomycin. […] The cells are loaded in a CO2 incubator for 30 minutes, and then are washed twice with the Assay Buffer to remove excess Fura-2AM. The cells are centrifuged, and then are prepared into a solution at 5×10^6 cells/ml with the Assay Buffer. Subsequently, the cells are dispensed on a 96-well plate (manufactured by Corning, Inc.) at a volume of 80 μl/well, and the plate is used as a cell plate. […] Subsequently, measurement of fluorescence intensity (excitation wavelength 340 nm and 380 nm, measurement wavelength 500 nm) is initiated at an interval of 2 seconds. After making measurements for about 30 seconds, 20 μl of the test sample from the sample plate is added to the cell plate, and measurements are further continued for 270 seconds. The Ca flux resulting from the test compound is calculated utilizing the difference between the maximum value of fluorescence intensity ratio at the wavelengths 340 nm and 380 nm after the addition of the test compound, and the fluorescence intensity ratio before the addition of the test compound, as the peak height.
# [3] = target: T3, human β3 adrenergic receptor (Homo sapiens, UniProt P13945); assay: Test Example 1-B: human β3 adrenergic receptor agonist activity (cAMP-Screen kit, transfected CHO cells, 96-well); details: for Emax: CHO, read-out: β3 receptor I.A.; for pEC50: Table 2, Test Example 1-B
# T3 construct: the full length human β3 gene is obtained from a human genomic library; expressed in transfected cells; host or cells: CHO (Chinese Hamster Ovary) cells, pcDNA3, geneticin selection
# Description: Measurement of Human β3 Adrenergic Receptor Agonist Activity
# The measurement of human β3 adrenergic receptor agonist activity is carried out using CHO (Chinese Hamster Ovary) cells transfected with pcDNA3 (manufactured by Invitrogen, Inc.) to which human β3 gene has been inserted. […] This human β3 cDNA fragment is used as a probe, and the full length human β3 gene is obtained from a human genomic library (manufactured by Clontech Laboratories, Inc.). The above cells are cultured in Ham's F-12 medium containing 10% fetal bovine serum and 400 μg/ml geneticin (manufactured by Invitrogen, Inc.). These cells are seeded on a 96-well plate to a concentration of 2×10^4 cells/well, and after being cultured for about 20 hours, the cells are left to stand in 80 μL of serum-free Ham's F-12 medium for 15 minutes. A test compound is initially dissolved in DMSO, and then is diluted stepwise with Ham's F-12 containing 100 mmol/L HEPES and 1 mmol/L isobutylmethylxanthine. 20 μL of the dilution is added to the cells. After the cells are cultured for 30 minutes, the medium is removed. 0.3. ml of the Assay/lysis Buffer included in cAMP-Screen kit (manufactured by Applied Biosystems, Inc.) is added to the cells, and the cells are incubated at 37° C. for 30 minutes. The resulting cell lysate is subjected to quantification of cAMP with the cAMP-Screen kit.
# [4] = target: T4, human β2 adrenergic receptor (Homo sapiens, UniProt P07550); assay: Test Example 3-B: human β2 adrenergic receptor agonist activity (method of Test Example 1-B); details: for β2 receptor EC50: Table 2, Test Example 3-B; for Emax: read-out: β2 receptor I.A.
# T4 construct: expressed in transfected cells; host or cells: CHO (Chinese Hamster Ovary) cells, pcDNA3
# Description: [Worded in the source for another target; this target is reported under the same test.] as §1, with “β2” for “β1”
# [5] = Table 2, Test Example 4, read-out: α1A receptor EC50
# T4 sequence (P07550 whole entry): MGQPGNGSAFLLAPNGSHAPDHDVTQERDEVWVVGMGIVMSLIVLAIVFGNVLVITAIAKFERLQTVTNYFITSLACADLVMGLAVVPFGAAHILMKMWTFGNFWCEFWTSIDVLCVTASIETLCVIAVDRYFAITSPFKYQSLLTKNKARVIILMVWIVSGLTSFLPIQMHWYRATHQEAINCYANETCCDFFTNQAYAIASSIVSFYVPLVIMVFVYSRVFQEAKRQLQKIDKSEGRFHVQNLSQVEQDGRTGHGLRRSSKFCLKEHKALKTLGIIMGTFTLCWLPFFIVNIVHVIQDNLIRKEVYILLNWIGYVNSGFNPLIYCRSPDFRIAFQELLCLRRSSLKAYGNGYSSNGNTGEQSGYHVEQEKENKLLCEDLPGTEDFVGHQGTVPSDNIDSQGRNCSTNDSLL
# T3 sequence (P13945 whole entry): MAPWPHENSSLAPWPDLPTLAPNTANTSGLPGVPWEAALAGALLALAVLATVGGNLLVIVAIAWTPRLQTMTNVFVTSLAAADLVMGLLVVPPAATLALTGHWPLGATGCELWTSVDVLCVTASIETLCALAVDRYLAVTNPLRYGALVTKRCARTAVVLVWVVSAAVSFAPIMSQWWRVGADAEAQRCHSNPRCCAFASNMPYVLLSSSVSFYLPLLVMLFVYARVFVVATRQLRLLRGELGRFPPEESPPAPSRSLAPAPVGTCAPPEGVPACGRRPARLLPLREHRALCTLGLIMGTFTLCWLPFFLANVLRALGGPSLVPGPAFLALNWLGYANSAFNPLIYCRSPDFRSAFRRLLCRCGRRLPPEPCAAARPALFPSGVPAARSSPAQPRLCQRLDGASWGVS
# T1 sequence (P08588 whole entry): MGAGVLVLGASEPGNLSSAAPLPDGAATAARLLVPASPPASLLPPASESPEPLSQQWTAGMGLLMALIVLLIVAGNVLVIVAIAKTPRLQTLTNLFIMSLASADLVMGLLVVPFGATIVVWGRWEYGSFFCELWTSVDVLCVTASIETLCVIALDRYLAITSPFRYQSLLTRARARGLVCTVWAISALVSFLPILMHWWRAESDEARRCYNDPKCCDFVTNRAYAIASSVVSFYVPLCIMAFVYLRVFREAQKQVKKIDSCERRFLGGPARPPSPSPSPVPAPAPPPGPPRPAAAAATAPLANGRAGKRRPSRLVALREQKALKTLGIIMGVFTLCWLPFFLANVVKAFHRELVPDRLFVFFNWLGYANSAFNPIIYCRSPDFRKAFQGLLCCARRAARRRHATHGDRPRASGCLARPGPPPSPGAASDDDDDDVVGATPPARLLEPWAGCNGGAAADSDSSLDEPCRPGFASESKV
structure (smiles),measurement,setting,value
"CCc1n[nH]c2cc(OCCNC[C@H](O)c3cccc(NS(=O)(=O)CC)c3)ccc12 [Example 20, (R)-N-(3-(2-(2-(3-ethylindazol-6-yloxy)ethylamino)-1-hydroxyethyl)phenyl)ethanesulfonamide]",β1 receptor EC50,[1],a)
same,Emax,[1],3%
same,Emax,[2],26%
same,pEC50,[2]; [5],6.31
same,Emax,[3],80%
same,pEC50,[3],7.96
same,β2 receptor EC50,[4],a)
same,Emax,[4],5%
"CS(=O)(=O)Nc1cc([C@@H](O)CNCCOc2ccc3c(C(F)(F)F)n[nH]c3c2)ccc1F [Example 10, (R)-N-(2-fluoro-5-(1-hydroxy-2-(2-(3-(trifluoromethyl)indazol-6-yloxy)ethylamino)ethyl)phenyl)methanesulfonamide]",β1 receptor EC50,[1],a)
same,Emax,[1],8%
same,Emax,[2],15%
same,pEC50,[2]; [5],5.89
same,Emax,[3],53%
same,pEC50,[3],7.39
same,β2 receptor EC50,[4],a)
same,Emax,[4],3%
"NC[C@H](O)c1ccc(O)c(O)c1 [Norepinephrine, reference compound]",Emax,[2],100%
same,α1A receptor I.A.,"[2]; Table 2, maximum response to norepinephrine taken as 100%",100%
"CC(C)c1n[nH]c2cc(OCCNC[C@H](O)c3ccc(Cl)c(NS(C)(=O)=O)c3)ccc12 [Example 7, (R)-N-(2-chloro-5-(1-hydroxy-2-(2-(3-isopropylindazol-6-yloxy)ethylamino)ethyl)phenyl)methanesulfonamide]",β1 receptor EC50,[1],a)
same,Emax,[1],22%
same,Emax,[2],0%
same,pEC50,[2]; [5],< 5.70
same,Emax,[3],65%
same,pEC50,[3],7.89
same,β2 receptor EC50,[4],a)
same,Emax,[4],8%
"Cc1n[nH]c2cc(OCCNC[C@H](O)c3cccc(NS(=O)(=O)c4ccccc4)c3)ccc12 [Example 14, (R)-N-(3-(1-hydroxy-2-(2-(3-methylindazol-6-yloxy)ethylamino)ethyl)phenyl)benzenesulfonamide]",β1 receptor EC50,[1],a)
same,Emax,[1],16%
same,pEC50,[2],< 5.70
same,Emax,[2],0%
same,Emax,[3],90%
same,pEC50,[3],8.00
same,β2 receptor EC50,[4],b)
same,Emax,[4],0%
"Cc1n[nH]c2cc(OCCNC[C@H](O)c3cccc(NS(=O)(=O)C(C)C)c3)ccc12 [Example 12, (R)-N-(3-(1-hydroxy-2-(2-(3-methylindazol-6-yloxy)ethylamino)ethyl)phenyl)propane-2-sulfonamide]",β1 receptor EC50,[1],b)
same,Emax,[1],-1%
same,pEC50,[2],5.88
same,Emax,[2],34%
same,Emax,[3],84%
same,pEC50,[3],7.08
same,β2 receptor EC50,[4],a)
same,Emax,[4],2%
"CCc1n[nH]c2cc(OCCNC[C@H](O)c3cccc(NS(=O)(=O)c4ccccc4)c3)ccc12 [Example 15, (R)-N-(3-(2-(2-(3-ethylindazol-6-yloxy)ethylamino)-1-hydroxyethyl)phenyl)benzenesulfonamide]",β1 receptor EC50,[1],a)
same,Emax,[1],1%
same,Emax,[2],0%
same,pEC50,[2]; [5],< 5.70
same,Emax,[3],80%
same,pEC50,[3],7.89
same,β2 receptor EC50,[4],b)
same,Emax,[4],-3%
"CCc1n[nH]c2cc(OCCNC[C@H](O)c3cccc(NS(=O)(=O)C(C)C)c3)ccc12 [Example 13, (R)-N-(3-(2-(2-(3-ethylindazol-6-yloxy)ethylamino)-1-hydroxyethyl)phenyl)propane-2-sulfonamide]",β1 receptor EC50,[1],b)
same,Emax,[1],-2%
same,Emax,[2],20%
same,pEC50,[2]; [5],< 5.70
same,Emax,[3],80%
same,pEC50,[3],7.33
same,β2 receptor EC50,[4],b)
same,Emax,[4],-3%
